# Data reported in patent US10111435B2, “Herbicidal compositions containing N-(1,3,4-oxadiazol-2-yl)-aryl carboxylic acid amides” (BAYER CROPSCIENCE AKTIENGESELLSCHAFT, priority 2013, dated 2018).
# Tests used:
# Format in all cases: in vivo
# [1] = test system: Chenopodium album (CHEAL); assay: greenhouse post-emergence herbicidal efficacy against CHEAL; conditions: 21 days after application
# Experimental: (§1) All trials whose results are shown were conducted in a greenhouse by the methodology specified below. The effect of the inventive herbicidal compositions was examined on the following harmful plants 14 and 21 days after application:
# (§2) Echinochloa crus-galli (ECHCG), Eleusine indica (ELEIN), Setaria viridis (SETVI), Amaranthus retroflexus (AMARE), Chenopodium album (CHEAL), Kochia scoparia (KCHSC), Solanum nigrum (SOLNI), Avena fatua (AVEFA), Bromus sterilis (BROST), Lolium multiflorum (LOLMU), Phalaris minor (PHAMI), Poa annua (POAAN), Galium aparine (GALAP), Matricaria inodora (MATIN) and Polygonum convolvulus (POLCO).
# (§3) The harmful plant seeds were sown in pots (diameter 8 cm) with sandy loam soil and germinated under optimal conditions. The inventive herbicidal compositions or the active ingredients alone were applied post-emergence to the planted pots with a spray volume of 300 L/ha. The trial was conducted in a greenhouse under optimum growth conditions. The herbicidal effects were assessed visually by comparison of untreated and treated plants. The percentages mean: 0%=no effects, 100%=the plants die off completely). The percentages are used to calculate interactions between individual treatments and combination treatments according to S. R. Colby, Weeds 15, pages 20 to 22 (1967).
# (§4) The abbreviations mean: • a.i.=active ingredient • E^C=expected value according to Colby (E^C=A+B−A×B/100) • Diff: =difference (%) of measured value from expected value (%) (measured value minus expected value)
# (§5) Assessment: • measured value E is greater than E^C:->synergism (+ diff.) • measured value E equals E^C:->additive effect • measured value E is smaller than E^C:->antagonism(− diff.)
# [2] = test system: Matricaria inodora (MATIN); assay: greenhouse post-emergence herbicidal efficacy against MATIN
# Experimental: as §1, §2
# as §3, with “completely).” for “completely). The percentages are used to calculate interactions between individual treatments and combination treatments according to S. R. Colby, Weeds 15, pages 20 to 22 (1967).”
# as §4, §5
# Eleusine indica (ELEIN) = assay: greenhouse post-emergence herbicidal efficacy against ELEIN
# Experimental: as §1, §2, §3, §4, §5
# Bromus sterilis (BROST) = assay: greenhouse post-emergence herbicidal efficacy against BROST
# Experimental: as §1, §2
# as §3, with “completely).” for “completely). The percentages are used to calculate interactions between individual treatments and combination treatments according to S. R. Colby, Weeds 15, pages 20 to 22 (1967).”
# as §4, §5
# Galium aparine (GALAP) = assay: greenhouse post-emergence herbicidal efficacy against GALAP
# Experimental: as §1, §2
# as §3, with “completely).” for “completely). The percentages are used to calculate interactions between individual treatments and combination treatments according to S. R. Colby, Weeds 15, pages 20 to 22 (1967).”
# as §4, §5
# Poa annua (POAAN) = assay: greenhouse post-emergence herbicidal efficacy against POAAN
# Experimental: as §1, §2
# as §3, with “completely).” for “completely). The percentages are used to calculate interactions between individual treatments and combination treatments according to S. R. Colby, Weeds 15, pages 20 to 22 (1967).”
# as §4, §5
# Kochia scoparia (KCHSC) = assay: greenhouse post-emergence herbicidal efficacy against KCHSC
# Experimental: as §1, §2, §3, §4, §5
# Phalaris minor (PHAMI) = assay: greenhouse post-emergence herbicidal efficacy against PHAMI
# Experimental: as §1, §2
# as §3, with “completely).” for “completely). The percentages are used to calculate interactions between individual treatments and combination treatments according to S. R. Colby, Weeds 15, pages 20 to 22 (1967).”
# as §4, §5
# Avena fatua (AVEFA) = assay: greenhouse post-emergence herbicidal efficacy against AVEFA
# Experimental: as §1, §2
# as §3, with “completely).” for “completely). The percentages are used to calculate interactions between individual treatments and combination treatments according to S. R. Colby, Weeds 15, pages 20 to 22 (1967).”
# as §4, §5
# [3] = test system: Lolium multiflorum (LOLMU); assay: greenhouse post-emergence herbicidal efficacy against LOLMU
# Experimental: as §1, §2
# as §3, with “completely).” for “completely). The percentages are used to calculate interactions between individual treatments and combination treatments according to S. R. Colby, Weeds 15, pages 20 to 22 (1967).”
# as §4, §5
# [4] = test system: Polygonum convolvulus (POLCO); assay: greenhouse post-emergence herbicidal efficacy against POLCO
# Experimental: as §1, §2
# as §3, with “completely).” for “completely). The percentages are used to calculate interactions between individual treatments and combination treatments according to S. R. Colby, Weeds 15, pages 20 to 22 (1967).”
# as §4, §5
# [5] = 14 days after application, g of a.i./ha: A1-57 12.5, aclonifen 200
# [6] = 14 days after application, g of a.i./ha: A1-57 12.5, aclonifen 800
# [7] = 14 days after application, g of a.i./ha: A1-57 50, aclonifen 800
# [8] = 21 days after application, g of a.i./ha: A1-57 50, aclonifen 800
# [9] = 21 days after application, 1 g of a.i./ha
# [10] = 21 days after application, g of a.i./ha: A1-57 12.5, aclonifen 800
# [11] = 14 days after application, g of a.i./ha: A1-57 50, aclonifen 200
# [12] = 21 days after application, g of a.i./ha: A1-57 12.5, aclonifen 200
# [13] = 14 days after application, 50 g of a.i./ha
# [14] = 14 days after application, 25 g of a.i./ha
# [15] = 14 days after application, 100 g of a.i./ha
# [16] = 21 days after application, g of a.i./ha: A1-55 2.5, glufosinate-ammonium 25
# [17] = 21 days after application, g of a.i./ha: A1-55 2.5, glufosinate-ammonium 100
# [18] = 21 days after application, g of a.i./ha: A1-55 10, glufosinate-ammonium 25
# [19] = 21 days after application, g of a.i./ha: A1-55 10, glufosinate-ammonium 100
smiles,measurement,setting,value
Cc1nnc(NC(=O)c2ccc(S(C)(=O)=O)c(OCCF)c2Cl)o1 [A1-57],Efficacy,[1]; 1 g of a.i./ha,30%
same,Efficacy,[2]; [5],60%
same,Efficacy,[2]; [6],60%
same,Efficacy,[2]; [7],85%
same,Efficacy,[2]; [8],80%
same,Efficacy,Eleusine indica (ELEIN); [9],10%
same,Efficacy,Bromus sterilis (BROST); [5],0%
same,Efficacy,Bromus sterilis (BROST); [6],0%
same,Efficacy,Bromus sterilis (BROST); [7],40%
same,Efficacy,Bromus sterilis (BROST); [10],0%
same,Efficacy,Bromus sterilis (BROST); [8],15%
same,Efficacy,Galium aparine (GALAP); [5],30%
same,Efficacy,Galium aparine (GALAP); [11],60%
same,Efficacy,Galium aparine (GALAP); [8],40%
same,Efficacy,Poa annua (POAAN); [5],15%
same,Efficacy,Poa annua (POAAN); [6],15%
same,Efficacy,Poa annua (POAAN); [11],50%
same,Efficacy,Poa annua (POAAN); [7],50%
same,Efficacy,Poa annua (POAAN); [10],10%
same,Efficacy,"Poa annua (POAAN); 21 days after application, g of a.i./ha: A1-57 50, aclonifen 200",35%
same,Efficacy,Poa annua (POAAN); [8],35%
same,Efficacy,"Kochia scoparia (KCHSC); 14 days after application, 1 g of a.i./ha",40%
same,Efficacy,Kochia scoparia (KCHSC); [9],20%
same,Efficacy,Phalaris minor (PHAMI); [5],50%
same,Efficacy,Phalaris minor (PHAMI); [6],50%
same,Efficacy,Phalaris minor (PHAMI); [11],70%
same,Efficacy,Phalaris minor (PHAMI); [12],20%
same,Efficacy,Phalaris minor (PHAMI); [10],20%
same,Efficacy,"Avena fatua (AVEFA); 14 days after application, 12.5 g of a.i./ha",0%
same,Efficacy,Avena fatua (AVEFA); [13],0%
same,Efficacy,Avena fatua (AVEFA); [5],0%
same,Efficacy,Avena fatua (AVEFA); [10],0%
same,Efficacy,[3]; [6],0%
same,Efficacy,[3]; [7],35%
same,Efficacy,[4]; [5],65%
same,Efficacy,[4]; [6],65%
same,Efficacy,[4]; [12],50%
CP(=O)(O)CCC(N)C(=O)O (centres unmarked) [glufosinate-ammonium],Efficacy,[2]; [14],0%
same,Efficacy,[2]; [15],30%
same,Efficacy,[2]; [16],0%
same,Efficacy,[2]; [17],15%
same,Efficacy,[2]; [18],0%
same,Efficacy,[2]; [19],15%
same,Efficacy,Bromus sterilis (BROST); [15],15%
same,Efficacy,Bromus sterilis (BROST); [17],15%
same,Efficacy,Bromus sterilis (BROST); [18],0%
same,Efficacy,Galium aparine (GALAP); [14],0%
same,Efficacy,Galium aparine (GALAP); [18],0%
same,Efficacy,Poa annua (POAAN); [15],0%
same,Efficacy,Poa annua (POAAN); [17],5%
same,Efficacy,Poa annua (POAAN); [19],5%
same,Efficacy,Phalaris minor (PHAMI); [14],0%
same,Efficacy,Phalaris minor (PHAMI); [15],15%
same,Efficacy,Phalaris minor (PHAMI); [16],0%
same,Efficacy,Phalaris minor (PHAMI); [17],10%
same,Efficacy,Phalaris minor (PHAMI); [18],0%
same,Efficacy,Phalaris minor (PHAMI); [19],10%
same,Efficacy,Avena fatua (AVEFA); [14],0%
same,Efficacy,Avena fatua (AVEFA); [15],25%
same,Efficacy,Avena fatua (AVEFA); [17],20%
same,Efficacy,Avena fatua (AVEFA); [19],20%
same,Efficacy,[3]; [14],0%
same,Efficacy,[3]; [15],25%
same,Efficacy,[3]; [17],15%
same,Efficacy,[3]; [19],15%
same,Efficacy,[4]; [14],0%
same,Efficacy,[4]; [15],25%
same,Efficacy,[4]; [18],0%
same,Efficacy,[4]; [19],5%
O=C(O)CNCP(=O)(O)O [glyphosate],Efficacy,[1]; 50 g of a.i./ha,30%
same,pest or weed control at 50 g/ha,"Eleusine indica (ELEIN); Eleusine indica, post-emergence, 504 h, read-out: Efficacy",0%
same,Efficacy,Kochia scoparia (KCHSC); [13],30%
same,Efficacy,"Kochia scoparia (KCHSC); 21 days after application, 50 g of a.i./ha",10%
same,Efficacy,"Kochia scoparia (KCHSC); 21 days after application, 200 g of a.i./ha",30%
